# Results from patent publication US20230118497A1, “PYRAZOLE-CONTAINING POLYCYCLIC DERIVATIVE INHIBITOR, PREPARATION METHOD THEREFOR AND APPLICATION THEREOF” (Shanghai Hansoh Biomedical Co., Ltd., priority 2019, published 2023).
# What was measured:
# [1] = biological target: T1, 1321N1-hP2X2/3 receptor (Homo sapiens, UniProt P56373+Q9UBL9); assay: Calcium ion mobility (FLIPR) in cells stably expressing 1321N1-hP2X2/3 receptors; assay type: cell-based; details: calcium signal, agonist at EC80
# T1 construct: host or cells: 1321N1
# T1 sequence (P56373 1-397): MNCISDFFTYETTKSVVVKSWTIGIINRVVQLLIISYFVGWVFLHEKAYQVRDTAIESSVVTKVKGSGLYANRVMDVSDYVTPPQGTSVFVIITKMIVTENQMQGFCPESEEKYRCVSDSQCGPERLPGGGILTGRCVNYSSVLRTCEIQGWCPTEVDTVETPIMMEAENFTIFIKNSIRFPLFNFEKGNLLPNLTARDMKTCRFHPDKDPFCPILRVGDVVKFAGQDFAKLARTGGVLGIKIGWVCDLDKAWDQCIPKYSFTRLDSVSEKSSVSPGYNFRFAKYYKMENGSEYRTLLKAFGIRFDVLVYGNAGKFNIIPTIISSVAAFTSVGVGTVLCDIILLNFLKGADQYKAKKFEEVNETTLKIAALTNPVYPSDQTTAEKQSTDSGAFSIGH
# T1 sequence (Q9UBL9 1-471): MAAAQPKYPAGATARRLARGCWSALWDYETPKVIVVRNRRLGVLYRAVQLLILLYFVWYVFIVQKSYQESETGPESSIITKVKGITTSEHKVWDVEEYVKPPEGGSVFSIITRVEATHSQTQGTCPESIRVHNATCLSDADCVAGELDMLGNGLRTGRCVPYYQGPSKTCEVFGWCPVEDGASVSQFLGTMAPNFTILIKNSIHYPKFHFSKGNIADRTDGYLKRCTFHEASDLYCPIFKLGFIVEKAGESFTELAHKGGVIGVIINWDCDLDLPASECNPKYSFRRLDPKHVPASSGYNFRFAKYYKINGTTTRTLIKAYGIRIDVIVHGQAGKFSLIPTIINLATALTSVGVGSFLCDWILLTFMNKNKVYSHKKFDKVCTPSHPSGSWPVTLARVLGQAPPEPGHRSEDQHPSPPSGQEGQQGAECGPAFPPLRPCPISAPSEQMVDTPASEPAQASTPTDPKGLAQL
# Method: Test Example 2. Determination of the Effect of the Compounds of the Present Invention on Calcium Ion Mobility in Cells Stably Expressing 1321N1-hP2X2/3 Receptors
# To determine the inhibitory activity of the compounds on 1321N1-hP2X2/3 receptor.
# Stably transfected cell line: 1321N1-hP2X2/3 (supplied by Shanghai ChemPartner Chemical Research Co., Ltd.).
# Assay buffer: 1*HBSS+20 mM HEPES;
# Cell culture medium: DMEM+10% FBS+75 μg/mL Hygromycin B+150 μg/mL G418;
# Plating medium: DMEM+10% DPBS;
# 0.5*Dye: 10*Dye stock+1.25 Probenecid+1*assay buffer+0.5 U/mL ATP hydrolytic enzyme;
# 2. The cells were cultured to 70%-90% confluency in the cell culture medium at 37° C., 5% CO2. The medium was discarded, and the cells were added with 2 mL of Versene, and the cells were placed in an incubator at 37° C. for 2 to 5 min. The cells were collected by addition of 10 mL of plating medium and counted. The cells were seeded to the 384-well assay plate by addition of 50 μL solution (a density of 1×10^4 cells/well) to each well, and incubated for 16 to 24 hours (at least overnight).
# 3. The medium was discarded, and 30 μL of 1× dye was added. The cells were incubated at 37° C. in the dark for 60 min.
# 4. The compound powder was dissolved in DMSO to obtain a 20 mM stock solution. 180× compound with required concentration was formulated, and diluted in gradient for concentration points.
# 5. Preparation of compound plate: 500 nL of 180× compound was transferred to the compound plate (source plate for FLIPR) using ECHO. 30 μL of assay buffer was added to each well, and the plate was shaken gently for 20 to 40 minutes.
# 6. Determination: 15 μL of 3× compound was taken from each well and added to the cell plate. The samples were added by FLIPR instrument, and the calcium signals were detected. After 15 minutes, 22.5 μL of 3× agonist (EC80 concentration) was added to each well and the calcium signals were detected.
# The calcium signal values were determined by FLIPR. The ratio of the 340/510 nm wavelength signals to 380/510 nm wavelength signals was used as the calculated results for each sampling time point in the experiment. The calculation of maximum minus minimum was derived from the ratio signal curve.
# The percent inhibition rate and ten-point concentration data were fitted to the parametric nonlinear logistic equation by using GraphPad prism to calculate the IC50 values of the compounds.
# [2] = Metabolic stability in liver microsome (dog); assay type: in vitro ADME; details: dog liver microsome 0.5 mg/mL, compound 1 μM; for half-life at 1 μM: liver microsomes, NADPH/UDPGA
# Method: (§1) Test Example 5. Assay of Metabolic Stability in Liver Microsome
# (§2) The objective of the experiment is to determine the stability of the compounds of the Examples in liver microsome of mouse, rat, dog and human.
# (§3) Formulation of the working solution of the compound: The stock solution of the compound was added to phosphate buffer, and the final concentration was 20 μM.
# (§4) Liver microsome was diluted with 100 mM phosphate buffer to obtain a final concentration of 0.625 mg/mL.
# (§5) NADPH (reduced nicotinamide adenine dinucleotide phosphate) and UDPGA (uridine diphosphate glucuronic acid) were weighed respectively, followed by addition of 100 mM phosphate buffer. The final concentrations were 20 mM.
# (§6) 1 mg of Alamethicin was weighed, to which 200 μL of DMSO was added to obtain a 5 mg/mL solution. The solution was diluted with phosphate buffer to obtain a final concentration of 50 μg/mL.
# (§7) 2.5 Formulation of the reaction stop solution Stop solution: Cold acetonitrile containing 100 ng/mL labetalol hydrochloride and 400 ng/mL tolbutamide as internal standards.
# (§8) 400 μL of the prepared liver microsome, 25 μL of the working solution of the compound and 25 μL of Alamethicin were added to a 96-well plate successively, which was then pre-incubated at 37° C. for 10 min. 50 μL of the prepared NADPH/UDPGA was added to initiate the reaction, and the plate was incubated at 37° C. The total volume of the reaction system was 500 μL. The final contents of the components were as follows: […]
# [3] = Metabolic stability in liver microsome (human); assay type: in vitro ADME; details: human liver microsome 0.5 mg/mL, compound 1 μM; for half-life at 1 μM: liver microsomes; for half-life at 1 μM / t1/2: NADPH/UDPGA
# Method: as §1, §2, §3, §4, §5, §6, §7, §8
SMILES,IC50 [1],"Remaining (%, 60 min) [2]",half-life at 1 μM [2],"Remaining (%, 60 min) [3]",half-life at 1 μM [3],t1/2 [3]
"N#Cc1cnn2c3nc(C(F)(F)F)ccc3c(=O)n(CC(=O)Nc3ccc(F)cn3)c12 [Example 80, 2-(3-Cyano-5-oxo-8-(trifluoromethyl)pyrazolo[1,5-a]pyrido[3,2-e]pyrimidin-4(5H)-yl)-N-(5-fluoropyridin-2-yl)acetamide]",3.04 µM,,,,,
"O=C(Cn1c(=O)c2ccc(C(F)(F)F)nc2n2nccc12)Nc1ccc(F)cn1 [Example 78, N-(5-Fluoropyridin-2-yl)-2-(5-oxo-8-(trifluoromethyl)pyrazolo[1,5-a]pyrido[3,2-e]pyrimidin-4(5H)-yl)acetamide]",4.52 µM,93.4%,11.2 h,97.5%,14.7 h,
"CCc1cc2n(CC(=O)Nc3ccc(F)cn3)c(=O)c3ccc(C(F)(F)F)nc3n2n1 [Example 34, 2-(2-Ethyl-5-oxo-8-(trifluoromethyl)pyrazolo[1,5-a]pyrido[3,2-e]pyrimidin-4(5H)-yl)-N-(5-fluoropyridin-2-yl)acetamide]",25.2 µM,,,113.9%,,∞
"N#Cc1cc2n(CC(=O)Nc3ccc(F)cn3)c(=O)c3ccc(C(F)(F)F)nc3n2n1 [Example 68, 2-(2-Cyano-5-oxo-8-(trifluoromethyl)pyrazolo[1,5-a]pyrido[3,2-e]pyrimidin-4(5H)-yl)-N-(5-fluoropyridin-2-yl)acetamide]",5.63 µM,99.0%,22.5 h,101.2%,23.4 h,
"O=C(Cn1c(=O)c2ccc(C(F)(F)F)nc2n2nc(Br)cc12)Nc1ccc(F)cn1 [Example 61-A, 2-(2-bromo-5-oxo-8-(trifluoromethyl)pyrazolo[1,5-a]pyrido[3,2-e]pyrimidin-4(5H)-yl)-N-(5-fluoropyridin-2-yl)acetamide]",6.36 µM,96.0%,15.6 h,100.4%,,∞
